According to patent US20220267310A1, “QUINAZOLINE AND CINNOLINE DERIVATIVES AS DNA-PK INHIBITOR” (MEDSHINE DISCOVERY INC., priority 2019, published 2022):
“And” between values parts separate entries of the source, which are not always exact repeats. Equal entries are not always repeated.

Assays:
[1] = test system: human head and neck cancer FaDu cell subcutaneous xenograft tumor; experiment: FaDu subcutaneous xenograft, mono and combination with radiotherapy; format: in vivo; conditions: for Tumor volume (mm^3), 3 days after administration: day 3; for Tumor volume (mm^3), 7 days after administration: day 7; for Tumor volume (mm^3), 10 days after administration: day 10; for Tumor volume (mm^3), 14 days after administration: day 14; for Tumor volume (mm^3), 17 days after administration: day 17; for Tumor volume (mm^3), 23 days after administration: day 23; for RTV (21th day) / T/C (%) (21th day) / TGI (%) (21th day) / Tumor volume (mm^3) (0th day) / Tumor volume (mm^3) (21th day): 50 mg/kg, PO
Protocol: Experiment purpose: The antitumor activity of the tested compound was evaluated in a nude mouse model of human head and neck cancer FaDu cell subcutaneous xenograft tumor
Experimental animals: Female BALB/c nude mice, 6-8 weeks old, weighing 17-23 grams; supplier: B&K Universal Group Limited
Human head and neck cancer FaDu cell (ATCC, Manassas. Virginiaite, item number: HTB-43) was cultured in vitro in a culture condition of EMEM medium with 10% fetal bovine serum, 100 U/mL penicillin and 100 μg/mL streptomycin, incubated at 37° C. and 5% CO2. Conventional digestive treatment passage was carried out using pancreatic enzyme—EDTA twice a week.
Each mouse was subcutaneously inoculated with 0.1 mL ([…]) FaDu cells at the right dorsal position, and when the average tumor volume reaches about 106 mm^3, randomization was used for initiating drug administration.
The tested compound was prepared as a 5 mg/mL clarified solution with 10% DMSO+50% polyethylene glycol 400+40% water as the solvent. Preparation was conducted every three days.
(§1) The experimental indicators refers to study whether tumor growth was inhibited, delayed, or cured. Tumor diameter was measured twice a week with a vernier caliper. The calculation formula of the tumor volume was V=0.5a×b^2, and a and b represent the long diameter and short diameter of the tumor, respectively.
(§2) The antitumor efficacy of the compound was evaluated by TGI (%) or relative tumor proliferation rate T/C (%). TGI (%) reflects the tumor growth inhibition rate. The calculation of TGI (%): TGI (%)=[1−(average tumor volume at the end of administration of a certain treatment group−average tumor volume at the beginning of administration of the treatment group)/(average tumor volume at the end of treatment in solvent control group−average tumor volume at the beginning of treatment in solvent control group)]×control group.
(§3) Relative tumor proliferation rate T/C (%): the calculation formula was as follows: T/C %=[…] TRTV/CRTV group (TRTV: treatment group RTV: CRTV: negative control group RTV). According to results of tumor measurement. Relative Tumor Volume (RTV) was calculated by the formula RTV=Vt/V0, where V0 was the average tumor volume measured in group administration (i.e., d0), and Vt was the average tumor volume measured in a certain single measurement. TRTV and CRTV collect data on the same day.
(§4) Statistic analysis includes an average value and a standard error (SEM) of tumor volume at each time point for each group. […] If there was no significant difference in F value, Dunnet (2-sided) method was applied to analysis. All data were analyzed using SPSS 17.0. P<0.05 was considered as having a significant difference.

[2] = test system: human small cell lung cancer NCI-H69 cell subcutaneous xenograft tumor; experiment: NCI-H69 subcutaneous xenograft, combination with etoposide, 22-day experiment (Table 7); format: in vivo, BALB/c nude mice
Protocol: Experiment example 3: in vivo pharmacodynamics of human small cell lung cancer NCI-H69 cell subcutaneous xenograft tumor BALB/c nude mouse model:
Experimental animals: Female BALB/c nude mice, 6-8 weeks old, weighing 15-22 grams; supplier: Shanghai Linchang Biotechnology Co., LTD. (Linchang, Shanghai)
Human small cell lung cancer NCI-H69 cells (ATCC, item number: HTB-119 and ECACC-95111733) were cultured in vitro in a culture condition of RPMI-1640 medium with 10% fetal bovine serum, 100 U/mL penicillin and 100 μg/mL streptomycin, incubated at 37° C. and 5% CO2. Conventional passage was carried out twice a week. When cell saturation was 80%-90% and the number reaches the requirement, cells were collected, counted and inoculated.
0.2 mL (10×10^6) NCI-H69 cells (with matrix glue, and volume ratio of 1:1) were subcutaneously inoculated into a right back of each mouse, and group administration was initiated when the average tumor volume reaches about 110-120 mm^3.
The tested compound was prepared as a 5 mg/mL clarified solution with 10% DMSO+50% polyethylene glycol 400+40% water as the solvent.
as §1, §2
as §3, with “group RTV;” for “group RTV:”, “tumor measurement,” for “tumor measurement.”
as §4

[3] = 50 mg/kg + 2 Gy, average ± SEM, n = 8
[4] = 50 mg/kg alone, average ± SEM, n = 8
[5] = QD, alone, average ± SEM, n = 8
[6] = 40 mg/kg, PO, QD + etoposide 10 mg/kg, IP, 3-day administration, 4-day withdrawal, 22nd day
[7] = 40 mg/kg, PO, QD + etoposide 10 mg/kg, IP, 3-day administration, 4-day withdrawal, average ± SEM

COc1ccc([C@@H](O)c2cc(-c3nncc4cc(N5CCOCC5)ccc34)c(F)cc2Cl)nn1 [Embodiment M3814, reference compound]
Tumor volume (mm^3), 3 days after administration [1, 3]: 168 ± 10 mm^3 | Tumor volume (mm^3), 7 days after administration [1, 3]: 106 ± 19 mm^3 | Tumor volume (mm^3), 10 days after administration [1, 3]: 68 ± 16 mm^3 | Tumor volume (mm^3), 14 days after administration [1, 3]: 25 ± 9 mm^3 | Tumor volume (mm^3), 17 days after administration [1, 3]: 12 ± 4 mm^3 | Tumor volume (mm^3), 23 days after administration [1, 3]: 1 ± 1 mm^3 | Tumor volume (mm^3), 28 days after administration ([1]; 50 mg/kg + 2 Gy, day 28, average ± SEM, n = 8): 1 ± 1 mm^3 | Tumor volume (mm^3), 31 days after administration ([1]; 50 mg/kg + 2 Gy, day 31, average ± SEM, n = 8): 0 ± 0 mm^3 | Tumor volume (mm^3), 35 days after administration ([1]; 50 mg/kg + 2 Gy, day 35, average ± SEM, n = 8): 0 ± 0 mm^3 | Tumor volume (mm^3), 42 days after administration ([1]; 50 mg/kg + 2 Gy, day 42, average ± SEM, n = 8): 0 ± 0 mm^3 | Tumor volume (mm^3), 49 days after administration ([1]; 50 mg/kg + 2 Gy, day 49, average ± SEM, n = 8): 0 ± 0 mm^3 | Tumor volume (mm^3), 56 days after administration ([1]; 50 mg/kg + 2 Gy, day 56, average ± SEM, n = 8): 0 ± 0 mm^3 | Tumor volume (mm^3), 63 days after administration ([1]; 50 mg/kg + 2 Gy, day 63, average ± SEM, n = 8): 0 ± 0 mm^3 | Tumor volume (mm^3), 70 days after administration ([1]; 50 mg/kg + 2 Gy, day 70, average ± SEM, n = 8): 0 ± 0 mm^3 | animal death or euthanasia during the study ([1]; 50 mg/kg alone, one animal of the group): found dead on day 23 after group administration | Tumor volume (mm^3), 3 days after administration [1, 4]: 167 ± 20 mm^3 | Tumor volume (mm^3), 7 days after administration [1, 4]: 322 ± 35 mm^3 | Tumor volume (mm^3), 10 days after administration [1, 4]: 502 ± 48 mm^3 | Tumor volume (mm^3), 14 days after administration [1, 4]: 752 ± 64 mm^3 | Tumor volume (mm^3), 17 days after administration [1, 4]: 997 ± 109 mm^3 | Tumor volume (mm^3), 23 days after administration [1, 4]: 1831 ± 254 mm^3 | RTV (21th day) ([1]; QD + radiotherapy 2 Gy): 0.03 ± 0.02 | T/C (%) (21th day) ([1]; QD + radiotherapy 2 Gy): 0.24% | TGI (%) (21th day) ([1]; QD + radiotherapy 2 Gy): 108.46% | Tumor volume (mm^3) (0th day) ([1]; QD + radiotherapy 2 Gy, 5-day radiotherapy, 2-day withdrawal, average ± SEM, n = 8): 106 ± 5 mm^3 | Tumor volume (mm^3) (21th day) ([1]; QD + radiotherapy 2 Gy, average ± SEM, n = 8): 3 ± 2 mm^3 | RTV (21th day) ([1]; QD, alone): 12.35 ± 1.10 | T/C (%) (21th day) ([1]; QD, alone): 99.60% | TGI (%) (21th day) ([1]; QD, alone): −0.43% | Tumor volume (mm^3) (0th day) [1, 5]: 106 ± 5 mm^3 | Tumor volume (mm^3) (21th day) [1, 5]: 1320 ± 174 mm^3 | Weight changes ([2]; 40 mg/kg group (+ etoposide 10 mg/kg, IP)): −16.00% | RTV (22th day) ([2]; 40 mg/kg, PO, QD + etoposide 10 mg/kg, IP, 3-day administration, 4-day withdrawal): 2.96 | T/C (%) [2, 6]: 34.40% | TGI (%) [2, 6]: 74% and 74.21% | Tumor volume (mm^3) (0th day) [2, 7]: 119 ± 13 mm^3 | Tumor volume (mm^3) (22th day) [2, 7]: 352 ± 26 mm^3
